Test results: patent US5571524A, “Agent for curing ischemic myocardial disease” (Unitika Ltd., priority 1994, dated 1996)

Experiments:
Type in all cases: in vivo
Mongrel dogs [1] = experiment: Coronary blood flow increase effect, nonischemic condition; conditions: for Coronary blood flow: 8-SPT and/or L-NAME alone, before Ap4A, N = 1 - 2
Method: (§1) Mongrel dogs weighing 18-22 kg were anesthetized with pentobarbital sodium (30 mg/kg). The trachea was intubated, and the dog was ventilated with room air with oxygen. The chest was opened through the left fifth intercostal space, and the heart was suspended in a pericardial cradle. The left anterior descending coronary artery was cannulated and perfused with blood via the carotid artery through an extracorporeal bypass tube after heparinization (500 units/kg). Coronary blood flow (CBF) was measured with an electromagnetic flow probe attached to the bypass tube, and coronary perfusion pressure (CPP) was monitored at the tip of the coronary arterial cannula. A small, short collecting tube was cannulated into a small coronary vein near the center of the perfused area to sample coronary venous blood. The drained venous blood was collected in a reservoir placed at the level of the left atrium. A high fidelity of left ventricular pressure and its first derivative were measured by a micromanometer (model P-5, Konigsberg Instruments, Inc., Pasadena, Calif.) placed in the left ventricular cavity through the apex. A pair of ultrasonic crystals was placed in the center of the perfused area about 1 cm apart to measure myocardial segment length with an ultrasonic dimension gauge (5 MHz, Schuessler, Cardiff by the Sea, Calif.). End-diastolic length (EDL) was determined at the R wave of the electrocardiogram, and end-systolic length (ESL) was determined at the minimal dP/dt. Fractional shortening was calculated by (EDL-ESL)/EDL as an index of myocardial contractility of the perfused area.
After stabilization, a physiological saline solution […], with the dosage thereof increased to 0.5, 1, 2, 4 and 8 μg/kg/min, and the changes in coronary blood flow were measured in order to assess the coronary blood flow increase effect of Ap4A.
8-sulfophenyltheophylline (hereinafter referred to as 8-SPT) serving as adenosine P1 receptor antagonist with a dose of 25 μg/kg/min was tested.
The above test was also repeated by replacing 8-SPT with N^G -nitro-L-arginine methyl ester (hereinafter referred to as L-NAME) serving as an endothelial-cell-induced nitric oxide (NO) synthesis inhibitor with a dose of 3 μg/kg/min(ic).
The above test was then repeated using 8-SPT and L-NAME in combination.

Mongrel dogs [2] = experiment: Lactate extraction ratio and pH of venous blood during ischemia; conditions: for pH of venous blood / Lactate extraction ratio: ischemia (1/3 blood flow); for pH of venous blood: control 7.46, 1/3 control 7.23; for Lactate extraction ratio: control 26.5, 1/3 control -67.9
Method: as §1
Namely, the lactate extraction ratio was obtained by coronary arteriovenous difference in lactate concentration multiplied by 100 and divided by arterial lactate concentration.
(§2) After stabilization, CPP was decreased with partial occlusion of the bypass tube to the left anterior descending coronary artery such that CBF decreased to one third of the control flow. The low CPP was maintained during this test.
(§3) Blood sampling from coronary veins and coronary arteries was conducted. Then the intracoronary administration of Ap4A was stopped. The lowered coronary perfusion pressure was further maintained for 10 minutes.
(§4) The above test was repeated by replacing Ap4A with adenosine with the dosage thereof being changed to 4, 8 and 16 μg/kg/min.
As mentioned previously, in the above-mentioned experimental systems, lactate extraction ratio and pH of venous blood were measured at the time of the intracoronary administration of Ap4A and also at the time of the intracoronary administration of adenosine.

Mongrel dogs [3] = experiment: Amelioration of myocardial ischemia: coronary blood flow, fractional shortening and perfusion pressure during factitious 1/3 blood flow; conditions: for Myocardial fractional shortening / Coronary blood flow / Coronary perfusion pressure: ischemia (1/3 blood flow); for Myocardial fractional shortening: control 26.9, 1/3 control 5.3; for Coronary blood flow: control 91.3, 1/3 control 21.2; for Coronary perfusion pressure: control 93.0, 1/3 control 57.0
Method: as §1, §2, §3, §4

[4] = adenosine 4 μg/kg/min intracoronary
[5] = adenosine 8 μg/kg/min intracoronary
[6] = adenosine 16 μg/kg/min intracoronary

Row | Structure (SMILES) | inhibition of the effect of adenosine (Mongrel dogs [1]; 8-SPT 25 μg/kg/min) | Coronary blood flow (Mongrel dogs [1]) | amelioration of lactate extraction ratio and pH (Mongrel dogs [2]; ischemia) | pH of venous blood (Mongrel dogs [2]; [4]) | Lactate extraction ratio (Mongrel dogs [2]; [4]) | pH of venous blood (Mongrel dogs [2]; [5]) | Lactate extraction ratio (Mongrel dogs [2]; [5]) | pH of venous blood (Mongrel dogs [2]; [6]) | Lactate extraction ratio (Mongrel dogs [2]; [6]) | Myocardial fractional shortening (Mongrel dogs [3]; adenosine 4 μg/kg/min) | Coronary blood flow (Mongrel dogs [3]; adenosine 4 μg/kg/min) | Coronary perfusion pressure (Mongrel dogs [3]; adenosine 4 μg/kg/min) | Myocardial fractional shortening (Mongrel dogs [3]; adenosine 8 μg/kg/min) | Coronary blood flow (Mongrel dogs [3]; adenosine 8 μg/kg/min) | Coronary perfusion pressure (Mongrel dogs [3]; adenosine 8 μg/kg/min) | Myocardial fractional shortening (Mongrel dogs [3]; adenosine 16 μg/kg/min) | Coronary blood flow (Mongrel dogs [3]; adenosine 16 μg/kg/min) | Coronary perfusion pressure (Mongrel dogs [3]; adenosine 16 μg/kg/min) | changes in coronary blood flow and myocardial fractional shortening (Mongrel dogs [3]; ischemia, adenosine 4, 8 and 16 μg/kg/min) | amelioration effect on myocardial ischemia (Mongrel dogs [3]; mongrel dogs in a state of excessive ischemia)
1 | Cn1c(=O)c2[nH]c(-c3ccc(S(=O)(=O)O)cc3)nc2n(C)c1=O [8-SPT, 8-sulfophenyltheophylline, reference compound] | completely inhibited | 93.7 ml/100 g/min |  |  |  |  |  |  |  |  |  |  |  |  |  |  |  |  |  | 
2 | Nc1ncnc2c1ncn2[C@@H]1O[C@H](CO)[C@@H](O)[C@H]1O [Adenosine, adenosine] |  |  | no such amelioration effects | 7.19 | -73.2% | 7.25 | -69.8% | 7.22 | -73.2% | 5.9% | 18.2 ml/100 g/min | 56.0 mmHg | 3.9% | 18.2 ml/100 g/min | 56.0 mmHg | 5.3% | 18.2 ml/100 g/min | 56.0 mmHg | no substantial changes in coronary blood flow and myocardial fractional shortening | unaffected
3 | COC(=O)[C@@H](N)CCCNC(=N)N[N+](=O)[O-] [L-NAME, N^G -nitro-L-arginine methyl ester, reference compound] |  | 90.3 ml/100 g/min |  |  |  |  |  |  |  |  |  |  |  |  |  |  |  |  |  | 
